We go through two compounds from ChEMBL document CHEMBL4622979, “Non-rigid Diarylmethyl Analogs of Baloxavir as Cap-Dependent Endonuclease Inhibitors of Influenza Viruses” (J Med Chem, 2020).

Data set [1] is described as follows: AUCinfinity in CD1 mouse liver assessed as baloxavir acid level at 15 mg/kg, po administered as single dose measured up to 24 hrs by LC-MS/MS analysis. Format: ADME, organism-based. Also on record: dose 15 mg/kg, route oral, time infinity. Conditions: in vivo.
Data set [2] can be described thus: Ratio of AUClast in CD1 mouse heart to plasma assessed as baloxavir acid level at 15 mg/kg, po administered as single dose measured up to 24 hrs by LC-MS/MS analysis. Format: ADME, organism-based. Conditions: other tissue.
The nature of data set [3]: Ratio of AUClast in CD1 mouse blood to plasma assessed as baloxavir acid level at 15 mg/kg, po administered as single dose measured up to 24 hrs by LC-MS/MS analysis. Format: ADME, organism-based. Conditions: in vivo.
Data set [4] is described as follows: Elimination rate constant in CD1 mouse liver assessed as baloxavir acid level at 15 mg/kg, po administered as single dose measured up to 24 hrs by LC-MS/MS analysis. Format: ADME, organism-based. Conditions: in vivo.
The nature of data set [5]: AUCinfinity in CD1 mouse spleen assessed as baloxavir acid level at 15 mg/kg, po administered as single dose measured up to 24 hrs by LC-MS/MS analysis. Format: ADME, organism-based. Also on record: dose 15 mg/kg, route oral, time infinity. Conditions: in vivo.
Data set [6] can be described thus: Cmax in CD1 mouse plasma assessed as baloxavir acid level at 15 mg/kg, po administered as single dose by LC-MS/MS analysis. Also on record: dose 15 mg/kg, route oral. The conditions noted are these: in vivo. Format: ADME, organism-based.
Data set [7] in a line: AUClast in CD1 mouse plasma assessed as baloxavir acid level at 15 mg/kg, po administered as single dose by LC-MS/MS analysis. Also on record: dose 15 mg/kg, route oral, time 0 - last. Conditions: in vivo. Format: ADME, organism-based.
The nature of data set [8]: Elimination rate constant in CD1 mouse brain assessed as baloxavir acid level at 15 mg/kg, po administered as single dose measured up to 24 hrs by LC-MS/MS analysis. Format: ADME, organism-based. The conditions noted are these: in vivo.
The nature of data set [9]: AUCinfinity in CD1 mouse lung assessed as baloxavir acid level at 15 mg/kg, po administered as single dose measured up to 24 hrs by LC-MS/MS analysis. Format: ADME, organism-based. Also on record: dose 15 mg/kg, route oral, time infinity. Conditions: in vivo.
A short description of data set [10]: Tmax in CD1 mouse lung assessed as baloxavir acid level at 15 mg/kg, po administered as single dose measured up to 24 hrs by LC-MS/MS analysis. The conditions noted are these: in vivo. Format: ADME, organism-based.
Data set [11] in a line: Half life in CD1 mouse spleen assessed as baloxavir acid level at 15 mg/kg, po administered as single dose measured up to 24 hrs by LC-MS/MS analysis. Format: ADME, organism-based. The conditions noted are these: in vivo.
A short description of data set [12]: AUClast in CD1 mouse brain assessed as baloxavir acid level at 15 mg/kg, po administered as single dose measured up to 24 hrs by LC-MS/MS analysis. Format: ADME, organism-based. The conditions noted are these: in vivo.
A short description of data set [13]: Tmax in CD1 mouse liver assessed as baloxavir acid level at 15 mg/kg, po administered as single dose measured up to 24 hrs by LC-MS/MS analysis. Conditions: in vivo. Format: ADME, organism-based.
Data set [14] is described as follows: AUClast in CD1 mouse plasma assessed as baloxavir acid level at 15 mg/kg, po administered as single dose measured up to 24 hrs by LC-MS/MS analysis. Format: ADME, organism-based. Also on record: time < 24 hr, dose 15 mg/kg, route oral. The conditions noted are these: in vivo.
A short description of data set [15]: Tmax in CD1 mouse spleen assessed as baloxavir acid level at 15 mg/kg, po administered as single dose measured up to 24 hrs by LC-MS/MS analysis. The conditions noted are these: in vivo. Format: ADME, organism-based.
Data set [16] is described as follows: MRTlast in CD1 mouse kidney assessed as (12aR)-12-(Diphenylmethyl)-7-hydroxy-3,4,12,12a-tetrahydro-1H-[1,4]oxazino[3,4-c]pyrido[2,1-f ][1,2,4]triazine-6,8-dione level at 15 mg/kg, po administered as single dose measured up to 24 hrs by LC-MS/MS analysis. Format: ADME, organism-based. Conditions: in vivo.
A short description of data set [17]: MRTlast in CD1 mouse liver assessed as (12aR)-12-(Diphenylmethyl)-7-hydroxy-3,4,12,12a-tetrahydro-1H-[1,4]oxazino[3,4-c]pyrido[2,1-f ][1,2,4]triazine-6,8-dione level at 15 mg/kg, po administered as single dose measured up to 24 hrs by LC-MS/MS analysis. Format: ADME, organism-based. The conditions noted are these: in vivo.
Data set [18] in a line: Elimination rate constant in CD1 mouse heart assessed as (12aR)-12-(Diphenylmethyl)-7-hydroxy-3,4,12,12a-tetrahydro-1H-[1,4]oxazino[3,4-c]pyrido[2,1-f ][1,2,4]triazine-6,8-dione level at 15 mg/kg, po administered as single dose measured up to 24 hrs by LC-MS/MS analysis. Format: ADME, organism-based. The conditions noted are these: in vivo.
Data set [19] in a line: Cytotoxicity against human MRC5 cells assessed as reduction in cell viability by ATP bioluminescence assay. Format: cell-based.
Data set [20] is described as follows: Half life in CD1 mouse brain assessed as (12aR)-12-(Diphenylmethyl)-7-hydroxy-3,4,12,12a-tetrahydro-1H-[1,4]oxazino[3,4-c]pyrido[2,1-f ][1,2,4]triazine-6,8-dione level at 15 mg/kg, po administered as single dose measured up to 24 hrs by LC-MS/MS analysis. Format: ADME, organism-based. Conditions: in vivo.
A short description of data set [21]: Half life in CD1 mouse muscle assessed as (12aR)-12-(Diphenylmethyl)-7-hydroxy-3,4,12,12a-tetrahydro-1H-[1,4]oxazino[3,4-c]pyrido[2,1-f ][1,2,4]triazine-6,8-dione level at 15 mg/kg, po administered as single dose measured up to 24 hrs by LC-MS/MS analysis. Format: ADME, organism-based, Muscle tissue. Conditions: in vivo.
Data set [22] can be described thus: Half life in CD1 mouse lung assessed as (12aR)-12-(Diphenylmethyl)-7-hydroxy-3,4,12,12a-tetrahydro-1H-[1,4]oxazino[3,4-c]pyrido[2,1-f ][1,2,4]triazine-6,8-dione level at 15 mg/kg, po administered as single dose measured up to 24 hrs by LC-MS/MS analysis. Format: ADME, organism-based. Conditions: in vivo.
A short description of data set [23]: Ratio of AUClast in CD1 mouse trachea to plasma assessed as (12aR)-12-(Diphenylmethyl)-7-hydroxy-3,4,12,12a-tetrahydro-1H-[1,4]oxazino[3,4-c]pyrido[2,1-f ][1,2,4]triazine-6,8-dione level at 15 mg/kg, po administered as single dose measured up to 24 hrs by LC-MS/MS analysis. Format: ADME, organism-based. Conditions: in vivo.
A short description of data set [24]: Elimination rate constant in CD1 mouse lung assessed as (12aR)-12-(Diphenylmethyl)-7-hydroxy-3,4,12,12a-tetrahydro-1H-[1,4]oxazino[3,4-c]pyrido[2,1-f ][1,2,4]triazine-6,8-dione level at 15 mg/kg, po administered as single dose measured up to 24 hrs by LC-MS/MS analysis. Format: ADME, organism-based. Conditions: in vivo.
Data set [25] can be described thus: Elimination rate constant in CD1 mouse kidney assessed as (12aR)-12-(Diphenylmethyl)-7-hydroxy-3,4,12,12a-tetrahydro-1H-[1,4]oxazino[3,4-c]pyrido[2,1-f ][1,2,4]triazine-6,8-dione level at 15 mg/kg, po administered as single dose measured up to 24 hrs by LC-MS/MS analysis. Conditions: in vivo. Format: ADME, organism-based.
Data set [26] in a line: Half life in CD1 mouse spleen assessed as (12aR)-12-(Diphenylmethyl)-7-hydroxy-3,4,12,12a-tetrahydro-1H-[1,4]oxazino[3,4-c]pyrido[2,1-f ][1,2,4]triazine-6,8-dione level at 15 mg/kg, po administered as single dose measured up to 24 hrs by LC-MS/MS analysis. Format: ADME, organism-based. The conditions noted are these: in vivo.
Data set [27] can be described thus: AUCinfinity in CD1 mouse brain assessed as (12aR)-12-(Diphenylmethyl)-7-hydroxy-3,4,12,12a-tetrahydro-1H-[1,4]oxazino[3,4-c]pyrido[2,1-f ][1,2,4]triazine-6,8-dione level at 15 mg/kg, po administered as single dose measured up to 24 hrs by LC-MS/MS analysis. Format: ADME, organism-based. Also on record: dose 15 mg/kg, time infinity, route oral. The conditions noted are these: in vivo.

`COC(=O)OCOc1c2n(ccc1=O)N([C@@H]1c3ccccc3SCc3c1ccc(F)c3F)[C@@H]1COCCN1C2=O` [BALOXAVIR MARBOXIL]: the AUC came out at 85348 ng·h/g in data set [1], 3640 ng·h/g in data set [5] and 9025 ng·h/g in [9]. Also, the entries for the “Ratio AUC” value in [2] and in data set [3] were 19.8 and 3.05, respectively. The Kel came to 0.27 h⁻¹ in data set [4] and 0.06 h⁻¹ in data set [8]. In data set [6], the Cmax is 141 ng/mL. The AUClast in data set [7] came to 715 ng·h/mL; in data set [12] it was 317 ng·h/g; in data set [14] it was 452 ng·h/mL. The Tmax in data set [10], in [13] and in [15] was 2 h in each case. For the same compound, in [11], the t1/2 was determined as 3.51 h.

For the compound `COC(=O)OCOc1c2n(ccc1=O)N(C(c1ccccc1)c1ccccc1)[C@@H]1COCCN1C2=O`, the MRTlast in data set [16] worked out at 2.5 h; in data set [17], 2.31 h. Moreover, the Kel turned out to be 0.41 h⁻¹ in [18], 0.44 h⁻¹ in [24] and 0.27 h⁻¹ in data set [25]. Also, in data set [19], the CC50 is more than 100 µM. Further, the t1/2 in data set [20] was 8.18 h; in data set [21], 1.71 h; in data set [22], 1.57 h; in data set [26], 1.77 h. Further, the “Ratio AUC” value in [23] came out at 3.22. The AUC in data set [27] was determined as 1238 ng·h/g.

As usually defined, the Cmax is the peak of the concentration-time curve. One may read the Tmax as the time from dosing to the highest level. A word on the CC50: it is the concentration at which the toxic effect on the cells reaches its halfway point.
